Values after ≈ are worked out from the molar mass of the structure shown.
Experiments:
Format in all cases: functional
Haemophilus influenzae [1] = assay: Antimicrobial activity against beta lactamase-nonproducing ampicillin-resistant Haemophilus influenzae MSC06647 isolate harboring Asn526Lys mutation in penicillin-binding protein 3 by broth dilution method
Haemophilus influenzae [2] = assay: Antimicrobial activity against beta lactamase-nonproducing ampicillin-resistant Haemophilus influenzae MSC06663 isolate harboring Met377Ile, Ser385Thr and Asn526Lys mutations in penicillin-binding protein 3 by broth dilution method
Haemophilus influenzae [3] = assay: Antimicrobial activity against rifampin-resistant Haemophilus influenzae Rd clone by broth dilution method

| Structure (SMILES) | MIC (Haemophilus influenzae [1]) [µg/mL] | MIC (Haemophilus influenzae [2]) [µg/mL] | MIC (Haemophilus influenzae [3]) [µg/mL] |
| --- | --- | --- | --- |
| CC1(C)S[C@@H]2[C@H](NC(=O)[C@H](N)c3ccccc3)C(=O)N2[C@H]1C(=O)O [AMPICILLIN] | 2 (≈ 5.72 µM) | 1 (≈ 2.86 µM) | 0.25 (≈ 0.715 µM) |
| C=CC1=C(C(=O)O)N2C(=O)[C@@H](NC(=O)/C(=N\O)c3csc(N)n3)[C@H]2SC1 [CEFDINIR] | 1 (≈ 2.53 µM) | 2 (≈ 5.06 µM) | 0.25 (≈ 0.632 µM) |
| CC1(C)S[C@@H]2[C@H](NC(=O)[C@H](N)c3ccc(O)cc3)C(=O)N2[C@H]1C(=O)O [AMOXICILLIN] | 4 (≈ 10.9 µM) | 1 (≈ 2.74 µM) | 0.5 (≈ 1.37 µM) |
| CO/N=C(\C(=O)N[C@@H]1C(=O)N2C(C(=O)OCOC(=O)C(C)(C)C)=C(/C=C\c3scnc3C)CS[C@H]12)c1csc(N)n1 [CEFDITOREN PIVOXIL] | 0.06 (≈ 0.0967 µM) | 0.5 (≈ 0.805 µM) | 0.008 (≈ 0.0129 µM) |
| CO/N=C(\C(=O)N[C@@H]1C(=O)N2C(C(=O)O)=C(COC(N)=O)CS[C@H]12)c1ccco1 [CEFUROXIME] | 2 (≈ 4.71 µM) | 2 (≈ 4.71 µM) | 0.5 (≈ 1.18 µM) |
| COCC1=C(C(=O)O)N2C(=O)[C@@H](NC(=O)/C(=N\OC)c3csc(N)n3)[C@H]2SC1 [CEFPODOXIME] | 1 (≈ 2.34 µM) | 8 (≈ 18.7 µM) | 0.03 (≈ 0.0702 µM) |
| CC=CC1=C(C(=O)O)N2C(=O)[C@@H](NC(=O)[C@H](N)c3ccc(O)cc3)[C@H]2SC1 [CEFPROZIL] | 4 (≈ 10.3 µM) | 4 (≈ 10.3 µM) | 2 (≈ 5.14 µM) |
| C[C@@H](O)[C@H]1C(=O)N2C(C(=O)O)=C(SC3CN(C4=NCCS4)C3)[C@H](C)[C@H]12 [TEBIPENEM] | 1 (≈ 2.61 µM) | 0.25 (≈ 0.652 µM) | 0.06 (≈ 0.156 µM) |
| CC/C=C(\C(=O)N[C@@H]1C(=O)N2C(C(=O)O)=C(COC(N)=O)CS[C@H]12)c1csc(N)n1 [CEFCAPENE] | 0.25 (≈ 0.551 µM) | 2 (≈ 4.41 µM) | 0.008 (≈ 0.0176 µM) |
